Test [1] deals with T1, Urokinase-type plasminogen activator (Homo sapiens, UniProt P00749). The test is described as follows: Rate constant of deacylation for Urokinase-type plasminogen activator; NM - Fast and could not be measured.
For test [2], the target named is T1, Urokinase-type plasminogen activator. The test is described as follows: Binding constant on Urokinase-type plasminogen activator was determined at 0 percent and at 97 minutes for maximum inhibition and no enzyme activity was recovered over the 2 h-time.
Test [3] has as its target T2, Serine protease 1 (Homo sapiens, UniProt P07477). The test is described as follows: Rate constant of acylation on trypsin was determined at 0 percent and at 97 minutes for maximum inhibition with 45 minutes persistence of inhibition.
Test [4] has as its target T1, Urokinase-type plasminogen activator. The test is described as follows: Specificity constant on Urokinase-type plasminogen activator was determined at 0 percent and at 97 minutes for maximum inhibition and no enzyme activity was recovered over the 2 h-time.
Test [5] concerns the target T2, Serine protease 1. The test is described as follows: Specificity constant on trypsin was determined at 0 percent and at 97 minutes for maximum inhibition with 45 minutes persistence of inhibition.
The target in test [6] is T1, Urokinase-type plasminogen activator. The test is described as follows: Rate constant of acylation on Urokinase-type plasminogen activator […] was determined at 0 percent and at 97 minutes for maximum inhibition and no enzyme activity was recovered over the 2 h-time.
The target of test [7] is T2, Serine protease 1. The test is described as follows: Binding constant on trypsin was determined at 0 percent and at 97 minutes for maximum inhibition with 45 minutes persistence of inhibition.
Test [8] addresses T2, Serine protease 1. The test is described as follows: Rate constant of deacylation for trypsin; Fast and could not be measured.
Test [9] addresses T1, Urokinase-type plasminogen activator. The test is described as follows: Rate constant of deacylation for Urokinase-type plasminogen activator.
Test [10] deals with Chymotrypsinogen A (Bos taurus) (UniProt P00766). The test is described as follows: Binding constant on alpha-chymotrypsin was determined at 45 percent and at 96 minutes for maximum inhibition and no enzyme activity was recovered over the 2 h-time.
The target of test [11] is T2, Serine protease 1. The test is described as follows: Rate constant of deacylation for trypsin.
Test [12] concerns the target T1, Urokinase-type plasminogen activator.
The target of test [13] is T2, Serine protease 1.
Test [14] addresses T2, Serine protease 1. The source holds these as a separate data set.
The target in test [15] is T1, Urokinase-type plasminogen activator. The source holds these as a separate data set.
The target is the same in test [16]. The source holds these as a separate data set.
Description: Specificity constant on Urokinase-type plasminogen activator was determined at 0 percent and at 86 minutes for maximum inhibition and no enzyme activity was recovered over the 2 h-time
Test [17] deals with Chymotrypsinogen A (Bos taurus) (UniProt P00766).
A further test concerns the target Chymotrypsinogen A (Bos taurus, UniProt P00766). The test is described as follows: Rate constant of deacylation for alpha-chymotrypsin; Fast and could not be measured.
Test [18] has as its target T2, Serine protease 1. This is another data set of the same source.
Description: Specificity constant on trypsin was determined at 0 percent and at 95 minutes for maximum inhibition and no enzyme activity was recovered over the 2 h-time
Test [19] deals with Chymotrypsinogen A (Bos taurus) (UniProt P00766). This is another data set of the same source.
Test [20] has the same target. This is another data set of the same source.
Test [21] addresses T3, Chymotrypsin-like elastase family member 2A (Sus scrofa) (UniProt P08419).
T3 sequence (whole entry): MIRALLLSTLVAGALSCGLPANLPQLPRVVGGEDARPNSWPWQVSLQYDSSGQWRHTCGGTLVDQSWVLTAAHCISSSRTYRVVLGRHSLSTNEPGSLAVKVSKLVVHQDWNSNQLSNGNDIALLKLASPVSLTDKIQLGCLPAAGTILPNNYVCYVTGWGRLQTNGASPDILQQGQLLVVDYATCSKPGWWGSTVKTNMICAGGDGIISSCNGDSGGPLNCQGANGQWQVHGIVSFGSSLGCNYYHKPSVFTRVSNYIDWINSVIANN
The test is described as follows: Rate constant of acylation on porcine pancreatic elastase was determined at 15 percent and at 35 minutes for maximum inhibition with 0 minutes persistence of inhibition.

Test [22] addresses T4, Neutrophil elastase (Homo sapiens) (UniProt P08246).
T4 sequence (whole entry): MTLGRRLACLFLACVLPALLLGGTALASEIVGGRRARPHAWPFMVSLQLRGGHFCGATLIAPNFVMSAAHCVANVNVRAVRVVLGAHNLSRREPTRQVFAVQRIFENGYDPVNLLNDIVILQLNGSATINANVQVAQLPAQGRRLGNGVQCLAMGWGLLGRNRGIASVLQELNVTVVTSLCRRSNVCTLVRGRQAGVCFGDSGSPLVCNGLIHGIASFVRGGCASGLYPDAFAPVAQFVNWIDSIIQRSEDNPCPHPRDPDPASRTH
The test is described as follows: Specificity constant on human neutrophil elastase was determined at 20 percent and at 95 minutes for maximum inhibition and no enzyme activity was recovered over the 2 h-time.

Test [23] addresses T4, Neutrophil elastase (Homo sapiens). The test is described as follows: Rate constant of acylation on human neutrophil elastase was determined at 20 percent and at 95 minutes for maximum inhibition and no enzyme activity was recovered over the 2 h-time.
Test [24] has the same target. The test is described as follows: Binding constant on human neutrophil elastase was determined at 20 percent and at 95 minutes for maximum inhibition and no enzyme activity was recovered over the 2 h-time.
Test [25] addresses T3, Chymotrypsin-like elastase family member 2A (Sus scrofa). The test is described as follows: Specificity constant on porcine pancreatic elastase was determined at 15 percent and at 35 minutes for maximum inhibition with 0 minutes persistence of inhibition.
Test [26] has the same target. The test is described as follows: Binding constant on porcine pancreatic elastase was determined at 15 percent and at 35 minutes for maximum inhibition with 0 minutes persistence of inhibition.
The target of test [27] is T4, Neutrophil elastase (Homo sapiens). The test is described as follows: Binding constant on human neutrophil elastase was determined at 30 percent and at 80 minutes for maximum inhibition and no enzyme activity was recovered over the 2 h-time.
For test [28], the target named is Chymotrypsinogen A (Bos taurus) (UniProt P00766). The test is described as follows: Specificity constant on alpha-chymotrypsin was determined at 10 percent and at 98 minutes for maximum inhibition and no enzyme activity was recovered over the 2 h-time.
Test [29] addresses T3, Chymotrypsin-like elastase family member 2A (Sus scrofa). The test is described as follows: Specificity constant on porcine pancreatic elastase was determined at 30 percent and at 99 minutes for maximum inhibition and no enzyme activity was recovered over the 2 h-time.
In test [30] the target is Chymotrypsinogen A (Bos taurus) (UniProt P00766). The test is described as follows: Rate constant of acylation on alpha-chymotrypsin was determined at 10 percent and at 98 minutes for maximum inhibition and no enzyme activity was recovered over the 2 h-time.
In test [31] the target is T2, Serine protease 1. The test is described as follows: Specificity constant on trypsin was determined at 10 percent and at 83 minutes for maximum inhibition and no enzyme activity was recovered over the 2 h-time.
For test [32], the target named is T3, Chymotrypsin-like elastase family member 2A (Sus scrofa). The test is described as follows: Rate constant of acylation on porcine pancreatic elastase was determined at 30 percent and at 99 minutes for maximum inhibition and no enzyme activity was recovered over the 2 h-time.
Test [33] addresses T4, Neutrophil elastase (Homo sapiens). The test is described as follows: Rate constant of acylation on human neutrophil elastase was determined at 30 percent and at 80 minutes for maximum inhibition and no enzyme activity was recovered over the 2 h-time.
Test [34] has as its target Chymotrypsinogen A (Bos taurus) (UniProt P00766). The test is described as follows: Binding constant on alpha-chymotrypsin was determined at 10 percent and at 98 minutes for maximum inhibition and no enzyme activity was recovered over the 2 h-time.
Test [35] deals with T3, Chymotrypsin-like elastase family member 2A (Sus scrofa). The test is described as follows: Binding constant on porcine pancreatic elastase was determined at 30 percent and at 99 minutes for maximum inhibition and no enzyme activity was recovered over the 2 h-time.
Test [36] concerns the target T2, Serine protease 1. The test is described as follows: Binding constant on trypsin was determined at 10 percent and at 83 minutes for maximum inhibition and no enzyme activity was recovered over the 2 h-time.
In test [37] the target is T2, Serine protease 1. The test is described as follows: Rate constant of acylation on trypsin was determined at 10 percent and at 83 minutes for maximum inhibition and no enzyme activity was recovered over the 2 h-time.
For test [38], the target named is T4, Neutrophil elastase (Homo sapiens). The test is described as follows: Specificity constant on human neutrophil elastase was determined at 30 percent and at 80 minutes for maximum inhibition and no enzyme activity was recovered over the 2 h-time.
Test [39] addresses T3, Chymotrypsin-like elastase family member 2A (Sus scrofa). The test is described as follows: Rate constant of acylation on porcine pancreatic elastase was determined at 10 percent and at 73 minutes for maximum inhibition and no enzyme activity was recovered over the 2 h-time.
For test [40], the target named is T4, Neutrophil elastase (Homo sapiens). The test is described as follows: Specificity constant on human neutrophil elastase was determined at 30 percent and at 10 minutes for maximum inhibition with 0 minutes persistence of inhibition.
Test [41] has the same target. The test is described as follows: Rate constant of acylation on human neutrophil elastase was determined at 30 percent and at 10 minutes for maximum inhibition with 0 minutes persistence of inhibition.
The target of test [42] is T3, Chymotrypsin-like elastase family member 2A (Sus scrofa). The test is described as follows: Binding constant on porcine pancreatic elastase was determined at 10 percent and at 73 minutes for maximum inhibition and no enzyme activity was recovered over the 2 h-time.
The target is the same in test [43]. The test is described as follows: Specificity constant on porcine pancreatic elastase was determined at 10 percent and at 73 minutes for maximum inhibition and no enzyme activity was recovered over the 2 h-time.
Test [44] has as its target T4, Neutrophil elastase (Homo sapiens). The test is described as follows: Binding constant on human neutrophil elastase was determined at 30 percent and at 10 minutes for maximum inhibition with 0 minutes persistence of inhibition.

The source of these data is ChEMBL document CHEMBL1126229, “Enol lactone derivatives as inhibitors of human neutrophil elastase and trypsin-like proteases” (Bioorg Med Chem Lett, 1992).

T2 sequence (P07477 whole entry): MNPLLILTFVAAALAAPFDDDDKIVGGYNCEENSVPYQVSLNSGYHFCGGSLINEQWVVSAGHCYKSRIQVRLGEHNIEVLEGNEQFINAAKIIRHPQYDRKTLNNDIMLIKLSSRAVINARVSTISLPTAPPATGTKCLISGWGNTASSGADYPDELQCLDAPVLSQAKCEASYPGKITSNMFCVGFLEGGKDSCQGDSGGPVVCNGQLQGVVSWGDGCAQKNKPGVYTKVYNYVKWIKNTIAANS

In the case of `C=C1CCC(c2ccc(NC(=N)N)cc2)C(=O)O1` (stereo unspecified), the Kd entry (in test [1]; on Serine protease 1 [8]) was “Not measurable” throughout. In addition, the Ks/i in [2] worked out at 0.33 µM; on Serine protease 1 [7], 0.23 µM. Moreover, the values for the ka (on Serine protease 1 [3]; in test [6]) were 14.3 min⁻¹ and 391 min⁻¹, respectively. The ka/Ki in test [4] was determined as 1.98e+07 M⁻¹ s⁻¹; on Serine protease 1 [5], 1.03e+06 M⁻¹ s⁻¹.

For `N=C(N)Nc1ccc([C@H]2C/C(=C\I)OC(=O)[C@@H]2NC(=O)c2ccccc2)cc1`, the figures for the Kd (in test [9]; at Serine protease 1 [11]) were 1.3e-05 s⁻¹ and 8.3e-05 s⁻¹, respectively. Also, in test [10], the Ks/i was found to be 0.17 µM.

For `C=C1C[C@H](c2ccc(NC(=N)N)cc2)[C@@H](NC(=O)c2ccccc2)C(=C)O1`, the values for the Ks/i (in test [12]; at Serine protease 1 [14]; in [19]) were 6 µM, 10 µM and 0.46 µM, respectively. Also, the ka was determined as 10.2 min⁻¹ at Serine protease 1 [13], 4.83 min⁻¹ in test [15] and 9.51 min⁻¹ in [20]. Further, the ka/Ki is 13300 M⁻¹ s⁻¹ in [16], 350000 M⁻¹ s⁻¹ in test [17] and 17000 M⁻¹ s⁻¹ at Serine protease 1 [18]. For the same molecule, the Kd entry at Chymotrypsinogen A was “Not measurable”; on Serine protease 1 [8], 2.5e-05 s⁻¹.

`C/C(Br)=C1/CCC(C(C)C)C(=O)O1` (stereo unspecified): the results for the ka in [21] and in test [23] were 1.12 min⁻¹ and 0.81 min⁻¹, respectively. Further, the ka/Ki in [22] was 4500 M⁻¹ s⁻¹; in test [25], 333 M⁻¹ s⁻¹. The Ks/i in [24] is 3 µM; in test [26], 48.7 µM.

In the case of `C=C1CCC(C(C)C)C(=O)O1` (stereo unspecified), the Ks/i is 6.25 µM in [27], 89 µM in [34], 88 µM in test [35] and 24 µM on Serine protease 1 [36]. Besides, the ka/Ki in test [28] worked out at 667 M⁻¹ s⁻¹; in [29], 83.3 M⁻¹ s⁻¹; at Serine protease 1 [31], 333 M⁻¹ s⁻¹; in [38] it was 34700 M⁻¹ s⁻¹. Moreover, the ka in [30] came out at 3.2 min⁻¹; in test [32] it was 0.42 min⁻¹; in test [33], 13 min⁻¹; at Serine protease 1 [37], 0.45 min⁻¹.

As to `C=C1CC(C)CC(=O)O1` (stereo unspecified), the ka was 4.47 min⁻¹ in [39] and 0.6 min⁻¹ in test [41]. Also, the ka/Ki amounted to 500 M⁻¹ s⁻¹ in test [40] and 167 M⁻¹ s⁻¹ in test [43]. In addition, the Ks/i in test [42] amounted to 393 µM; in test [44], 22.7 µM.
